In patent US5792457A, “Antibody recognizing endothelial cell ligand for leukocyte CR3” (priority 1995, dated 1998):

Legend:
[1] = tested on: transendothelial migration of human neutrophils through HUVEC monolayers; test: Transendothelial migration (TEM) of neutrophils; format: cell-based; conditions: for % Inhibition of TEM: peptides 0.01 mM, native FHA 1 μM, at least 3 experiments with 6 wells/peptide
From the text: FIG. 26 is a graphical representation of the inhibition of transendothelial migration of neutrophils by FHA peptide Ca, native FHA and mAb IB4 in a concentration dependent fashion. FHA peptide Ca (.largecircle.); intact FHA (.quadrature.); and mAb IB4 (.tangle-solidup.). Values represent mean±standard deviation of at least 3 experiments with 6 wells/peptide.
Transendothelial migration of neutrophils was studied based on a method described by Muller et al. (1992), J. Exp. Med. 176: 819-828. Briefly, human neutrophils suspended in ice-cold Hanks balanced salt solution (HBSS) containing Ca^++ and Mg^++ (Sigma) were fluoresceinated by adding 3.3 μl/ml 5-(and 6-)carboxyfluorescein diacetate, succinimidyl ester (CFSE, Molecular Probes Inc., Oreg.). After incubation for 30 mins. on ice, neutrophils were washed twice in cold HBSS with Ca^++ and Mg^++ and resuspended in cold Medium 199 (M199, Sigma) to a final concentration of 10^6 /ml. Human umbilical vein endothelial cells were subcultured at confluence into 96-well tissue culture plates (Becton Dickinson Labware, Lincoln Park, N.J.) that were coated with hydrated collagen gel (Vitrogen; Collagen Corporation, Palo Alto, Calif.) and fibronectin. Endothelial cells were stimulated with 10 ng/ml TNF-alpha for 4 hours and washed three times with warm M199. Neutrophils (10^6 /ml) were preincubated with 0.01 mM of peptides or with 1 μM of native FHA in M199 for 5 mins. on ice before they were added in 100 μl aliquots to the endothelial cells. For positive control, neutrophils were pre-incubated with 25 μg/ml anti-CD18 mAb IB4. For negative control, neutrophils were treated with 25 μg/ml mAb W6/32 against HLA class I antigen (Dako, Carpinteria, Calif.). The cells were incubated for 1 hour at 37° C., 5% CO2. To terminate transmigration, the supernatant fluid was aspirated and the wells were filled with warm 1 mM EGTA (Sigma) in HBSS without Ca and Mg. The plates were covered with plate sealers (Dynatech, Alexandria, Va.) and centrifuged in an inverted position at 250 g for 3 mins. at room temperature. To remove residual non-transmigrated neutrophils from the endothelial cells, monolayers were washed twice with 200 μl of warm Hanks solution without Ca and Mg. Fluorescence was quantitated using a fluorescence counter (Millipore Cytofluorm™ 2300). The percentage of transmigrated neutrophils was determined by comparing the amount of fluorescence of test wells with that measured in collagen- and fibronectin-coated wells without endothelial cells. […] Percent inhibition of transendothelial migration of neutrophils was calculated by comparing the number of transmigrated cells in wells containing neutrophils treated with peptide to neutrophils treated with M199 alone and arbitrarily set at 100% transendothelial migration (TEM).
(§1) The procedures for determining the neutrophil adherence to cultured endothelial cells and the transendothelial migration of neutrophils were identical with those of Example 9. Control values were the same as those shown in Example 9.

[2] = tested on: neutrophil adherence to human umbilical vein endothelial cells (HUVEC); test: Adherence of neutrophils to cultured (TNF alpha stimulated) endothelial cells; format: cell-based; conditions: for role of RGD in blocking neutrophil adherence (in words) / inhibition of neutrophil adherence: 20-mer peptides, 0.5 mM; for inhibition of neutrophil adherence (in words): peptides 0.5 mM (Example 9); for neutrophil adherence, peptide plus 9D4: peptide 5 μg/ml + 9D4 10 μg/ml; for neutrophil adherence, peptide plus 12H1: peptide 5 μg/ml + 12H1 10 μl of ascites; for neutrophil adherence, peptide plus IB4: peptide 5 μg/ml + IB4 10 μg/ml; for neutrophil adherence, single agent: peptide 5 μg/ml or antibody alone (IB4 10 μg/ml, 12H1 10 μl of ascites, 9D4 10 μg/ml); for additive reduction of neutrophil adherence, peptide together with IB4: with anti-CD18 mAb IB4 (50 μg/ml); for maximal inhibition of neutrophil attachment: concentration series (FIG. 25B)
Description: FIG. 17 is a bar graph representation of the inhibition of neutrophil adherence to activated endothelial cells by FHA, Factor X- and FHA- derived peptides. The concentration of inhibiting substances was: peptides 0.5 mM, native FHA 0.3 μM. Values represent the mean±standard deviation of 4 experiments with 5 wells/peptide.
FIG. 18 is a graphical representation of the FHA, FHA- or Factor X-peptide concentration effects on the inhibition of neutrophil adherence to activated endothelial cells. FHA peptide II monomer (Square) and trimer (Diamond), Factor X peptide II (Circle) at 10^-9 μM to 0.5 mM; native FHA at 10^-6 to 3×10^2 μM (triangle). Values represent the mean of 3 experiments with 5 wells/peptide (standard deviations <15%).
FIG. 25 is a graphical representation of the inhibition of neutrophil adherence to activated endothelial cells by FHA and FHA peptides. FIG. 25A: Peptide concentrations were 0.5 mM (FHA 0.2 μM). Values represent mean±standard deviation of four experiments with 5 wells/peptide; FIG. 25B represents the mean±standard deviation of triplicate experiments with 5 wells/peptide. Native FHA (.quadrature.); FHA peptide Ca (.largecircle.).
Human umbilical vein endothelial cells (HUVEC, first passage, Clonetics, San Diego, Calif.) were subcultured at confluence into Terasaki tissue culture wells. After 24 hours, confluent monolayers were used for adherence assays. Monolayers were stimulated with 10 ng/ml TNF alpha (Boehringer Mannheim, Indianapolis, Ind.) at 37° C. for four hours. 30 μl of human neutrophils (10^6 /ml) were labeled with fluorescein by the method of Lo et al. (1991), J. ExP. Med. 173 1493-1500, and preincubated for 15 minutes at 37° C. with 20 μl of peptides (0.5 mM in HAP) or HAP (phosphate buffered saline containing 0.5 mg/ml human serum albumin, 3 mM glucose, and 0.3 U/ml aprotinin) as a control buffer. For some experiments, endothelial cells were pretreated from 10 minutes with Factor X or antibodies against Factor X receptor (EPR-1; Altieri et al. (1990), J. Immunol. 145, 246-253) 12H1 and 9D4 (obtained from Dr. D. Altieri, Scripps Research Institute, LaJolla, Calif.) and then washed. Neutrophils were allowed to adhere to the monolayer for 15 mins. at 37° C. and unbound cells were removed by submersion of the plate in PBS buffer. The number of adherent neutrophils was counted in a 40× microscope field and expressed as a percentage of adherence in control wells with neutrophils treated with HAP buffer alone. The mAb IB4 against CD18 (50 μg/ml; Merck Inc., Rahway, N.J.) served as a positive control.
The ability of FHA peptides and anti-CD18 or anti-Factor X receptor antibodies to interact cooperatively to inhibit neutrophil adherence to endothelial cells was assessed by measuring neutrophil adherence to endothelial cells in the presence of antibody as well as antibody plus peptide. […] Anti-Factor X receptor mAb 12H1 (10 μl of ascites) or 9D4 (10 μg/ml) were added to the endothelial cell monolayers 10 min before the assay. The peptides were added at 5 μg/ml. The results are shown in Table 8 where the numerical values are in % of control binding.
as §1

Substance: AADPHQGVLAQGDIIMDAKG [FHA Cc]
- % Inhibition of TEM [1]: 11 ± 11%
- role of RGD in blocking neutrophil adherence (in words) [2]: activity was detectable above background but was not statistically different from buffer alone

Substance: Ac-ETKEVDG-NH2 [Acetyl/Amide-FHA II]
- inhibition of neutrophil adherence (in words) [2]: significantly enhanced the ability of peptide FHA II to block neutrophil adherence to endothelia

Substance: DEETVK [scrambled FHA II, reference compound]
- % Inhibition of TEM [1]: 4 ± 5%
- inhibition of neutrophil adherence (in words) [2]: did not interfere with neutrophil binding

Substance: ETKEVDG [FHA II]
- % Inhibition of TEM [1]: 21 ± 10%
- neutrophil adherence, peptide plus 9D4 [2]: 45 ± 9 % of control binding
- neutrophil adherence, peptide plus 12H1 [2]: 67 ± 13 % of control binding
- neutrophil adherence, peptide plus IB4 [2]: 11 ± 6 % of control binding
- neutrophil adherence, single agent [2]: 40 ± 23 % of control binding
- additive reduction of neutrophil adherence, peptide together with IB4 [2]: > 80±10%

Substance: GTLLLRNDALTENGTVTISA [FHA Cd]
- % Inhibition of TEM [1]: 6 ± 6%
- inhibition of neutrophil adherence [2]: < 15%

Substance: GYDTKQEDG [Factor X II]
- % Inhibition of TEM [1]: 14 ± 9%

Substance: LGYQAK (UniProt P12255 1979-1984, looked up, fragment) [FHA Ia]
- % Inhibition of TEM [1]: 23 ± 5%
- neutrophil adherence, peptide plus 9D4 [2]: 63 ± 17 % of control binding
- neutrophil adherence, peptide plus 12H1 [2]: 64 ± 12 % of control binding
- neutrophil adherence, peptide plus IB4 [2]: 20 ± 7 % of control binding
- neutrophil adherence, single agent [2]: 63 ± 12 % of control binding
- inhibition of neutrophil adherence (in words) [2]: significantly more active than the Factor X peptide I
- additive reduction of neutrophil adherence, peptide together with IB4 [2]: > 80±10%

Substance: RADPHQGVLAQGDIIMDAKG [FHA Cb]
- % Inhibition of TEM [1]: 8 ± 9%
- role of RGD in blocking neutrophil adherence (in words) [2]: activity was decreased by half

Substance: RGDPHQGVLAQGDIIMDAKG [FHA Ca]
- concentration required for inhibition of TEM similar to native FHA (82±1% at 1 μM) [1]: 10 µM
- % Inhibition of TEM [1]: 83 ± 8%
- % Inhibition of TEM ([1]; listed as FHA peptide Ca): 83±8%
- inhibition of neutrophil adherence [2]: 47±7%
- maximal inhibition of neutrophil attachment [2]: ~ 50%

Substance: native FHA: Filamentous hemagglutinin, 220kD surface associated protein of Bordetella pertussis (List Biologicals)
- % Inhibition of TEM [1]: 82±1%
- % Inhibition of TEM ([1]; listed as FHA): 82 ± 1%
- % Inhibition of TEM ([1]; listed as Intact FHA): 82±1%
- concentration at which loss of activity (≤20% inhibition) occurred [2]: 10^-3 μM
- maximal inhibition of neutrophil attachment [2]: ~ 50%
- reduction of neutrophil binding to HUVEC ([2]; native FHA 25 μg/ml = 0.3 μM): 51±8%
- inhibition of adherence of neutrophils to endothelial cells ([2]; native FHA 50 ug/ml, 0.2 uM): 51±7%
